Columns and labels:
[1] = molecular target: GDP-bound NRAS wild-type protein (Homo sapiens, UniProt P01111); experiment: Binding to NRAS by surface plasmon resonance (SPR), Single Cycle Kinetics; details: KD ratio NRAS/KRAS, SPR
[2] = molecular target: GDP-bound HRAS wild-type protein (Homo sapiens, UniProt P01112); experiment: Binding to HRAS by surface plasmon resonance (SPR), Single Cycle Kinetics; details: KD ratio HRAS/KRAS, SPR
GDP-bound HRAS wild-type protein, sequence (P01112 whole entry): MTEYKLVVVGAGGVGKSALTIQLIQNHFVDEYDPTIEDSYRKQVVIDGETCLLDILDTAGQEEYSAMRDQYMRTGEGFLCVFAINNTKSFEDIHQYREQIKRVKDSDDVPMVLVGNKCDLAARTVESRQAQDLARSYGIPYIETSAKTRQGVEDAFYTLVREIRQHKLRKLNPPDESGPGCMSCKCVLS

GDP-bound NRAS wild-type protein, sequence (P01111 whole entry): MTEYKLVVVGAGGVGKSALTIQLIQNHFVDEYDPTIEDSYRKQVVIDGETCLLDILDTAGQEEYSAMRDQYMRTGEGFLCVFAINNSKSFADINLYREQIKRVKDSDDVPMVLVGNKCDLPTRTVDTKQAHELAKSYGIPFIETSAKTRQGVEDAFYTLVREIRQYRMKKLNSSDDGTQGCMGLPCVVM

SMILES	NRAS/KRAS (ratio of KD value with respect to GDP-bound NRAS wild-type protein to KD value with respect to KRAS) [1]	HRAS/KRAS (ratio of KD value with respect to GDP-bound HRAS wild-type protein to KD value with respect to KRAS) [2]
CC[C@H](C)[C@@H]1NC(=O)[C@H](CC(C)C)N(C)C(=O)C[C@@H](C(=O)N2CCOCC2)N(C)C(=O)[C@H](C2CCCC2)N(C)C(=O)C2(CC2)NC(=O)[C@@H]2CCCN2C(=O)[C@H](CCc2cc(F)c(C(F)(F)F)c(F)c2)NC(=O)CN(C)C(=O)[C@H](Cc2ccc(C(F)(F)F)cc2)N2CCCCC[C@@H](C2=O)N(C)C(=O)CN(C)C1=O [PP0496]	B (a compound having 3 or more and less than 10 is denoted as B)	B (a compound having 3 or more and less than 10 is denoted as B)
CC[C@H](C)[C@@H]1NC(=O)[C@H](CC(C)C)N(C)C(=O)C[C@@H](C(=O)N2CCOCC2)N(C)C(=O)[C@H](C2CCCC2)N(C)C(=O)C2(CCC2)NC(=O)[C@@H]2CCCN2C(=O)[C@H](CCc2cc(F)c(C(F)(F)F)c(F)c2)NC(=O)CN(C)C(=O)[C@H](Cc2ccc(C(F)(F)F)cc2)N2CCCCC[C@@H](C2=O)N(C)C(=O)CN(C)C1=O [PP0497]	B (a compound having 3 or more and less than 10 is denoted as B)	B (a compound having 3 or more and less than 10 is denoted as B)
CC[C@H](C)[C@@H]1NC(=O)[C@H](CC(C)C)N(C)C(=O)C[C@@H](C(=O)N2CCOCC2)N(C)C(=O)[C@H](C2CCCC2)N(C)C(=O)C2(CCCCC2)NC(=O)[C@@H]2CCCN2C(=O)[C@H](CCc2cc(F)c(C(F)(F)F)c(F)c2)NC(=O)CN(C)C(=O)[C@H](Cc2ccc(C(F)(F)F)cc2)N2CCCCC[C@@H](C2=O)N(C)C(=O)CN(C)C1=O [PP0498]	B (a compound having 3 or more and less than 10 is denoted as B)	B (a compound having 3 or more and less than 10 is denoted as B)
CC[C@H](C)[C@@H]1NC(=O)[C@H](CC(C)C)N(C)C(=O)C[C@@H](C(=O)N2CCOCC2)N(C)C(=O)[C@H](C2CCCC2)N(C)C(=O)C2(CC(F)(F)C2)NC(=O)[C@@H]2CCCN2C(=O)[C@H](CCc2cc(F)c(C(F)(F)F)c(F)c2)NC(=O)CN(C)C(=O)[C@H](Cc2ccc(C(F)(F)F)cc2)N2CCCCC[C@@H](C2=O)N(C)C(=O)CN(C)C1=O [PP0499]	B (a compound having 3 or more and less than 10 is denoted as B)	B (a compound having 3 or more and less than 10 is denoted as B)
CC[C@H](C)[C@@H]1NC(=O)[C@H](CC(C)C)N(C)C(=O)C[C@@H](C(=O)N2CCOCC2)N(C)C(=O)[C@H](C2CCCC2)N(C)C(=O)[C@](C)(CC)NC(=O)[C@@H]2CCCN2C(=O)[C@H](CCc2cc(F)c(C(F)(F)F)c(F)c2)NC(=O)CN(C)C(=O)[C@H](Cc2ccc(C(F)(F)F)cc2)N2CCCCC[C@@H](C2=O)N(C)C(=O)CN(C)C1=O [PP0500]	B (a compound having 3 or more and less than 10 is denoted as B)	B (a compound having 3 or more and less than 10 is denoted as B)
CC[C@H](C)[C@@H]1NC(=O)[C@H](CC(C)C)N(C)C(=O)C[C@@H](C(=O)N2CCOCC2)N(C)C(=O)[C@H](C2CCCC2)N(C)C(=O)C2(COC2)NC(=O)[C@@H]2CCCN2C(=O)[C@H](CCc2cc(F)c(C(F)(F)F)c(F)c2)NC(=O)CN(C)C(=O)[C@H](Cc2ccc(C(F)(F)F)cc2)N2CCCCC[C@@H](C2=O)N(C)C(=O)CN(C)C1=O [PP0501]	B (a compound having 3 or more and less than 10 is denoted as B)	B (a compound having 3 or more and less than 10 is denoted as B)
CC[C@H](C)[C@@H]1NC(=O)[C@H](CC(C)C)N(C)C(=O)C[C@@H](C(=O)N2CCOCC2)N(C)C(=O)[C@H](C2CCCC2)N(C)C(=O)C2(CCOCC2)NC(=O)[C@@H]2CCCN2C(=O)[C@H](CCc2cc(F)c(C(F)(F)F)c(F)c2)NC(=O)CN(C)C(=O)[C@H](Cc2ccc(C(F)(F)F)cc2)N2CCCCC[C@@H](C2=O)N(C)C(=O)CN(C)C1=O [PP0502]	A (a compound having 10 or more and less than 20 is denoted as A)	B (a compound having 3 or more and less than 10 is denoted as B)
CC[C@H](C)[C@@H]1NC(=O)[C@H](CC(C)C)N(C)C(=O)C[C@@H](C(=O)N2CCOCC2)N(C)C(=O)[C@H](C2CCCC2)N(C)C(=O)C(C)(C)NC(=O)[C@@H]2CCCN2C(=O)[C@H](CCc2cc(F)c(C(F)(F)F)c(F)c2)NC(=O)CN(C)C(=O)[C@H](Cc2ccc(C(F)(F)F)cc2)N2CCCCC[C@@H](C2=O)N(C)C(=O)CN(C)C1=O [PP0503]	A (a compound having 10 or more and less than 20 is denoted as A)	B (a compound having 3 or more and less than 10 is denoted as B)
CC[C@H](C)[C@@H]1NC(=O)[C@H](CC(C)C)N(C)C(=O)C[C@@H](C(=O)N2CCOCC2)N(C)C(=O)[C@H](C2CCC2)N(C)C(=O)C2(CCCC2)NC(=O)[C@@H]2CCCN2C(=O)[C@H](CCc2cc(F)c(C(F)(F)F)c(F)c2)NC(=O)CN(C)C(=O)[C@H](Cc2ccc(C(F)(F)F)cc2)N2CCCCC[C@@H](C2=O)N(C)C(=O)CN(C)C1=O [PP0504]	B (a compound having 3 or more and less than 10 is denoted as B)	B (a compound having 3 or more and less than 10 is denoted as B)
CC[C@H](C)[C@@H]1NC(=O)[C@H](CC(C)C)N(C)C(=O)C[C@@H](C(=O)N2CCOCC2)N(C)C(=O)[C@H](C2CCCCC2)N(C)C(=O)C2(CCCC2)NC(=O)[C@@H]2CCCN2C(=O)[C@H](CCc2cc(F)c(C(F)(F)F)c(F)c2)NC(=O)CN(C)C(=O)[C@H](Cc2ccc(C(F)(F)F)cc2)N2CCCCC[C@@H](C2=O)N(C)C(=O)CN(C)C1=O [PP0505]	B (a compound having 3 or more and less than 10 is denoted as B)	B (a compound having 3 or more and less than 10 is denoted as B)
CC[C@H](C)[C@@H]1NC(=O)[C@H](CC(C)C)N(C)C(=O)C[C@@H](C(=O)N2CCOCC2)N(C)C(=O)[C@H](CC(F)(F)F)N(C)C(=O)C2(CCCC2)NC(=O)[C@@H]2CCCN2C(=O)[C@H](CCc2cc(F)c(C(F)(F)F)c(F)c2)NC(=O)CN(C)C(=O)[C@H](Cc2ccc(C(F)(F)F)cc2)N2CCCCC[C@@H](C2=O)N(C)C(=O)CN(C)C1=O [PP0506]	B (a compound having 3 or more and less than 10 is denoted as B)	B (a compound having 3 or more and less than 10 is denoted as B)
CC[C@H](C)[C@@H]1NC(=O)[C@H](CC(C)C)N(C)C(=O)C[C@@H](C(=O)N(C)C)N(C)C(=O)[C@H](C2CCCC2)N(C)C(=O)C2(CCCC2)NC(=O)[C@@H]2CCCN2C(=O)[C@H](CCc2cc(F)c(C(F)(F)F)c(F)c2)NC(=O)CN(C)C(=O)[C@H](Cc2ccc(C(F)(F)F)cc2)N2CCCCC[C@@H](C2=O)N(C)C(=O)CN(C)C1=O [PP0507]	B (a compound having 3 or more and less than 10 is denoted as B)	B (a compound having 3 or more and less than 10 is denoted as B)
CC[C@H](C)[C@@H]1NC(=O)[C@H](CC(C)C)N(C)C(=O)C[C@@H](C(=O)N2CCCC2)N(C)C(=O)[C@H](C2CCCC2)N(C)C(=O)C2(CCCC2)NC(=O)[C@@H]2CCCN2C(=O)[C@H](CCc2cc(F)c(C(F)(F)F)c(F)c2)NC(=O)CN(C)C(=O)[C@H](Cc2ccc(C(F)(F)F)cc2)N2CCCCC[C@@H](C2=O)N(C)C(=O)CN(C)C1=O [PP0509]	B (a compound having 3 or more and less than 10 is denoted as B)	B (a compound having 3 or more and less than 10 is denoted as B)
CC[C@H](C)[C@@H]1NC(=O)[C@H](CC(C)C)N(C)C(=O)C[C@@H](C(=O)N2CCCCC2)N(C)C(=O)[C@H](C2CCCC2)N(C)C(=O)C2(CCCC2)NC(=O)[C@@H]2CCCN2C(=O)[C@H](CCc2cc(F)c(C(F)(F)F)c(F)c2)NC(=O)CN(C)C(=O)[C@H](Cc2ccc(C(F)(F)F)cc2)N2CCCCC[C@@H](C2=O)N(C)C(=O)CN(C)C1=O [PP0510]	B (a compound having 3 or more and less than 10 is denoted as B)	B (a compound having 3 or more and less than 10 is denoted as B)
CC[C@H](C)[C@@H]1NC(=O)[C@H](CC(C)C)N(C)C(=O)C[C@@H](C(=O)N2C3CCC2COC3)N(C)C(=O)[C@H](C2CCCC2)N(C)C(=O)C2(CCCC2)NC(=O)[C@@H]2CCCN2C(=O)[C@H](CCc2cc(F)c(C(F)(F)F)c(F)c2)NC(=O)CN(C)C(=O)[C@H](Cc2ccc(C(F)(F)F)cc2)N2CCCCC[C@@H](C2=O)N(C)C(=O)CN(C)C1=O [PP0511]	A (a compound having 10 or more and less than 20 is denoted as A)	B (a compound having 3 or more and less than 10 is denoted as B)
